Source: patent EP0003212A1, “2.4-Diamino-5-benzylpyrimidines, pharmaceutical compositions containing them and their preparation” (F. HOFFMANN-LA ROCHE & CO. Aktiengesellschaft, priority 1977, dated 1979)
Where two headings read alike, the source gives them in different places.

How the values were obtained:
[1] = target: bakterielle Dihydrofolsäurereduktase (DHFR) (Escherichia coli, UniProt P0ABQ4); assay: 50% inhibition of bacterial dihydrofolate reductase; format: biochemical, E. coli
Excerpt: Die Verbindungen der Formel I und ihre Salze sind antibakteriell wirksam. Sie hemmen die bakterielle Dihydrofolsäurereduktase (DHFR) und potenzieren darüberhinaus die Wirkung von Sulfonamiden und anderen Dihydrofolsäuresynthetasehemmern. Beispiele von Sulfonamiden, die durch die erfindungsgemässen Verbindungen potenziert werden, sind solche der Pyrimidin-, Isoxazol-, Oxazol- und Pyrazinreihe wie Sulfadiazin, Sulfadimethoxin, Sulfadoxin, Sulfamerazin, Sulfameter, Sulfamethazin, 6-Methoxy-4-sulfanilamidopyrimidin, Sulfamethoxazol, Sulfisoxazol, 3-Sulfanilamido-4,5-dimethyl-isoxazol, Sulfamoxol und Sulfalen. Quantitativ zeichnen sich die erfindungsgemässen Verbindungen gegenüber bekannten Verbindungen durch niedrigere 50%ige Hemmkonzentrationen der bakteriellen DHFR, beispielsweise bei E. coli, und durch wesentlich höhere Q-Werte (50%ige Hemmung der DHFR bei Ratte/50%ige Hemmung der DHFR bei E. coli), die ein Mass für die Selektivität der Hemmung der bakteriellen DHFR darstellen, sowie durch geringe Toxizität aus.

S. aureus Schoch. = assay: In vitro antibacterial activity (MIC); format: cell-based; conditions: strain S. aureus Schoch., unit not given
E. coli 1346 = assay: In vitro antibacterial activity (MIC); format: cell-based; conditions: strain E. coli 1346, unit not given
[2] = DHFR of E. coli, read-out: 50% Hemmung der DHFR (M x 10^-8) E. coli

Structure (SMILES)	IC50 [1, 2]	Aktivität in vitro (MIC) S. aureus Schoch. (S. aureus Schoch.)	Aktivität in vitro (MIC) E. coli 1346 (E. coli 1346)	IC50 [1]
COCCSc1c(OC)cc(Cc2cnc(N)nc2N)cc1OC [R^1=H, R^2=OCH3, R^3=SC2H4OCH3, R^4=OCH3]	97 nM	1,0	–	–
CSc1ccc(Cc2cnc(N)nc2N)cc1SC [R^1=H, R^2=H, R^3=SCH3, R^4=SCH3]	16 nM	0,7	–	–
COc1c(SC)cc(Cc2cnc(N)nc2N)cc1SC [R^1=H, R^2=SCH3, R^3=OCH3, R^4=SCH3]	7.2 nM	0,2	0,7	–
CCSc1c(OC)cc(Cc2cnc(N)nc2N)cc1OC [R^1=H, R^2=OCH3, R^3=SC2H5, R^4=OCH3, 2,4-Diamino-5-[4-(äthylthio)-3,5-dimethoxybenzyl]-pyrimidin]	1.8 nM	0,4	0,04	–
CSc1cc(Cc2cnc(N)nc2N)cc(SC)c1SC [R^1=H, R^2=SCH3, R^3=SCH3, R^4=SCH3]	4.5 nM	0,2	0,2	–
COc1cc(Cc2cnc(N)nc2N)cc(OC)c1SC [R^1=H, R^2=OCH3, R^3=SCH3, R^4=OCH3, 2,4-Diamino-5-[3,5-dimethoxy-4-(methylthio)-benzyl]-pyrimidin]	–	0,4	0,02	3.5 nM
CSc1cc(Cc2cnc(N)nc2N)cc(SC)c1-n1cccc1 [R^1=H, R^2=SCH3, R^3=[drawing], R^4=SCH3]	5.2 nM	4,0	> 1	–
COc1c(Br)cc(Cc2cnc(N)nc2N)cc1SC [R^1=H, R^2=SCH3, R^3=OCH3, R^4=Br]	11 nM	1,0	0,2	–
CSc1cc(C)c(Cc2cnc(N)nc2N)cc1SC [R^1=CH3, R^2=H, R^3=SCH3, R^4=SCH3, 2,4-Diamino-5-[2-methyl-4,5-bis-(methylthio)-benzyl]-pyrimidin]	–	0,7	0,7	15 nM
COc1cc(Cc2cnc(N)nc2N)cc(SC)c1OC [R^1=H, R^2=SCH3, R^3=OCH3, R^4=OCH3]	5 nM	0,78	0,1	–
